Measurements reported in publication PMC12756790, “Site-Selective Protein Modification via Peptide-Directed Proximity Catalysis” (ACS Omega, 2025).

Columns and labels:
[1] = target: T1, insulin (Homo sapiens, UniProt P01308); experiment: peptide-directed proximity catalysis labeling of insulin, intact protein LC-MS; format: biochemical; settings: control (scrambled peptide, peptide lacking PyOx, or PyOx-azide) with biotin-NASA 3b, pH 7.4, 2 h, 22 °C
Description: With these reagents in hand, we attempted peptide-directed proximity catalysis on insulin. Initial experiments were performed in pH 7.4 phosphate buffer at a concentration of 50 μM, which was above the K d calculated for peptide binding (Figure ). Varying equivalents of pyridinium oxime peptide P1-(PyOx) 1 (0, 1.25, 2.5, 5, or 10 equiv wrt protein) were then added, followed by the addition of biotin–NASA 3b (20 equiv wrt protein). […] After 2 h at room temperature (22 °C), reactions were analyzed by intact protein liquid chromatography mass spectrometry (LC-MS). […] Further controls using either a scrambled peptide (FYRTGF-(PyOx)1), peptide lacking the pyridinium oxime P1, or pyridinium oxime-azide 2 also gave no labeling, providing further evidence that labeling was mediated by a specific protein–peptide binding interaction, and catalyzed by the pyridinium oxime motif.
General protocol: A solution of PyOx-peptide probe ([…] in pH 7.4 PBS, 25 µL, 7.4 PBS, 25 µL, 1.25 nmol; Final concentration 25 µM ) and shaken for 30 min . A solution of biotin-NASA 3b (25 mM in DMSO, 1 µL, 25 nmol; Final concentration 490 µM) was then added and the mixture shaken at room temperature for 2 h. Samples were then analysed by LC-MS without purification.
Figure S5: Deconvoluted mass spectra from general labelling protocol showing modified and unmodified insulin. […]

[2] = test system: RNase S; design: method as in Kim and Raines, Protein Sci. 1993 (ref 26); settings: S-peptide cleaved from N-terminal domain of RNase A; ref Kim and Raines, Protein Sci. 1993 (ref 26); cited from earlier work
[3] = target: T1, insulin; experiment: QCM-D binding of gold-tethered peptides to insulin; settings: predicted from QCM-D of model peptides, 'noting the assumptions detailed above'
Source text: To predict whether the insulin-binding capability of P1 would be maintained after the introduction of a pyridinium oxime catalyst, peptides bearing either an N- or C-terminal cysteine (C-P1 and P1-C, respectively) were first synthesized and tethered to a gold sensor for quartz crystal microbalance with dissipation monitoring (QCM-D) analysis. It is important to note that these model peptides lacked the positive charge that would be introduced upon installation of a pyridinium oxime, and so evidence of binding was expected to be indicative of binding potential, rather than providing an exact measure of binding affinity.
Sensor preparation: QCM-D gold sensors (QSX 301, Biolin Scientific) were cleaned by UV–ozone treatment (30 min), followed by sonication in a 2% Hellmanex III solution (5 min) and then sonication in ultrapure water (5 min). Sensors were then dried with N2 […]
Binding studies: Following cleaning, each sensor was installed into the flow modules of a Q-Sense E4, QFM 401 system by Biolin Scientific. Each chamber was then filled with Milli-Q water at a flow rate of 100 μL/min controlled by a four-channel peristaltic pump. To achieve a stable baseline, PBS was left to flow through the modules at 100 μL/min until the drift in frequency was <±1 Hz over 10 min. […]

T1 sequence (P01308 25-54 limits assumed): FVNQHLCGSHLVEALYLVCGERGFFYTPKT
T1 sequence (P01308 90-110 limits assumed): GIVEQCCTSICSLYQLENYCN

Substance	insulin labeling, controls [1]	binding affinity to remaining parent protein RNase S [2]	predicted affinity for target protein [3]
FYRTGF-(PyOx)1 [scrambled peptide control]	no labeling	–	–
KETAAAKFERQHMDSSTSA [P2]	–	nM binding affinty	–
RGFFYT [P1]	no labeling	–	μM affinity
